Laboratory results as given in patent US11999746B2, “Compounds” (GlaxoSmithKline Intellectual Property Development Limited, priority 2014, dated 2024).

Target: T1, Lp-PLA2 in human plasma (Homo sapiens, UniProt Q13093)
T1 construct: from tissue; host or cells: pooled human plasma
T1 sequence (Q13093 22-441): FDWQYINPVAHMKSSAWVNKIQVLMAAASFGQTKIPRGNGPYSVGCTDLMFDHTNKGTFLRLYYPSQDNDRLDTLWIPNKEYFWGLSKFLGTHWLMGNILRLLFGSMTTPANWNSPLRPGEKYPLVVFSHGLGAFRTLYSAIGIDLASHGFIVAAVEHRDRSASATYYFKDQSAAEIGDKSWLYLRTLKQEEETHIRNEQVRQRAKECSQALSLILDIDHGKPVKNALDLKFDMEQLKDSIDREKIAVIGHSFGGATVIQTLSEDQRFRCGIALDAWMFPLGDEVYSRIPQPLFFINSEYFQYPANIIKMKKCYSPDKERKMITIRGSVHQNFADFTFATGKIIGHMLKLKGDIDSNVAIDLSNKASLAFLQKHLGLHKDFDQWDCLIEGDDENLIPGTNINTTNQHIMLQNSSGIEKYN
Experiment: (3a) Lp-PLA2 human plasma Thio-PAF assay
Assay type: biochemical
Conditions: (3a) Thio-PAF assay, pooled human plasma; Examples 1-265 and 413-430 were tested here; read-out: pIC50 in the Lp-PLA2 human plasma assay (converted)
From the text: (3) Lipoprotein-Associated Phospholipase A2 (Lp-PLA2) Human Plasma Assay
The human plasma assay utilizes a thioester analog of PAF (phosphatidylcholine), where hydrolysis yields to the formation of a phospholipid containing a free thiol group. The amount of thiol is quantitated continuously by reacting with CPM (7-diethylamino-3-(4′-maleimidylphenyl)-4-methylcoumarin), a maleimide which increases in fluoresence after Michael addition of thiols. This assay may detect the activity of Lp-PLA2 in human plasma, as determined by specific inhibition by Lp-PLA2 inhibitors.
The thio-PAF assay was run as a quenched 15 μL assay. Compounds source plate was prepared by making 1:3 (by volume) serial dilution of the compounds into pure DMSO on 384-well microplate. 0.01 μL of compounds on compound source plate were transferred to 384 well Greiner 784076 (black) low-volume plates by ECHO liquid dispenser. 8 μL pooled human plasma, which was previously aliquoted and frozen, was added. Plates were centrifuged for 10 sec at 500 rpm. After 30 minutes preincubation, 2 μL of substrate solution comprising 2.5 mM 2-thio-PAF [from ethanol stock], 32 μM CPM [from a DMSO stock] and 3.2 mM NEM (N-ethylmaleimide) [made fresh daily in DMSO] in assay buffer of 50 mM HEPES, pH 7.4, 150 mM NaCl, 1 mM CHAPS was added to 384 well Greiner 784076 (black) low-volume plates by BRAVO liquid handling station. After 2 mins, reaction was quenched with 5 μL of 5% aqueous trifluoroacetic acid (TFA). Plates were covered to protect from light and incubated for 40 min at room temperature. Plates were read at ex: 380/em: 485 using Envision microplate reader. PIC50 data, curve and QC analysis were conducted by using XLFit module in Excel.

IC50, ≤ 10 µM:
Cn1cc(Oc2c(F)cc(COc3cc4n(c(=O)n3)CC3OCCN43)cc2F)cn1 (single isomer, unassigned) [Example E189, 6-((3,5-difluoro-4-((1-methyl-1H-pyrazol-4-yl)oxy)benzyl)oxy)-10,10a-dihydro-2H-oxazolo[3′,2′:3,4]imidazo[1,2-c]pyrimidin-8(3H)-one]
O=c1nc(OCc2ccc(F)cc2F)cc2n1C[C@H]1COCN21 [Example E168, (S)-6-((2,4-difluorobenzyl)oxy)-10,10a-dihydro-1H-oxazolo[3′,4′:3,4]imidazo[1,2-c] pyrimidin-8(3H)-one]
O=c1nc(OCc2cccc(F)c2F)cc2n1C[C@H]1COCN21 [Example E169, (S)-6-((2,3-difluorobenzyl)oxy)-10,10a-dihydro-1H-oxazolo[3′,4′:3,4]imidazo[1,2-c]pyrimidin-8(3H)-one]
O=c1nc(OCc2cccc(F)c2)cc2n1C[C@@H]1COCN21 [Example E171, (R)-6-((3-fluorobenzyl)oxy)-10,10a-dihydro-1H-oxazolo[3′,4′:3,4]imidazo[1,2-c]pyrimidin-8(3H)-one]
O=c1nc(OCc2cccc(F)c2F)cc2n1C[C@@H]1COCN21 [Example E172, (R)-6-((2,3-difluorobenzyl)oxy)-10,10a-dihydro-1H-oxazolo[3′,4′:3,4]imidazo[1,2-c] pyrimidin-8(3H)-one]
O=c1nc(OCc2cc(F)c(F)cc2F)cc2n1C[C@H]1COCN21 [Example E173, (S)-6-((2,4,5-trifluorobenzyl)oxy)-10,10a-dihydro-1H-oxazolo[3′,4′:3,4]imidazo[1,2-c] pyrimidin-8(3H)-one]
O=c1nc(OCc2ccc(F)cc2F)cc2n1C[C@@H]1COCN21 [Example E174, (R)-6-((2,4-difluorobenzyl)oxy)-10,10a-dihydro-1H-oxazolo[3′,4′:3,4]imidazo[1,2-c]pyrimidin-8(3H)-one]
O=c1nc(OCc2cc(F)c(F)cc2F)cc2n1C[C@@H]1COCN21 [Example E175, (R)-6-((2,4,5-trifluorobenzyl)oxy)-10,10a-dihydro-1H-oxazolo[3′,4′:3,4]imidazo[1,2-c] pyrimidin-8(3H)-one]
O=c1nc(OCc2cc(F)cc(F)c2)cc2n1C[C@@H]1COCN21 [Example E176, (R)-6-((3,5-difluorobenzyl)oxy)-10,10a-dihydro-1H-oxazolo[3′,4′:3,4]imidazo[1,2-c] pyrimidin-8(3H)-one]
O=c1nc(OCc2ccc(F)cc2F)cc2n1C[C@H]1CCOCN21 [Example E177, (R)-3-((2,4-difluorobenzyl)oxy)-8,9,9a,10-tetrahydropyrimido[6′,1′:2,3]imidazo[1,5-c][1,3] oxazin-1(6H)-one]
O=c1nc(OCc2ccc(F)cc2F)cc2n1C[C@@H]1CCOCN21 [Example E180, (S)-3-((2,4-difluorobenzyl)oxy)-8,9,9a,10-tetrahydropyrimido[6′,1′:2,3]imidazo[1,5-c][1,3]oxazin-1(6H)-one]
O=c1nc(OCc2cc(F)c(F)cc2F)cc2n1C[C@@H]1CCOCN21 [Example E181, (S)-3-((2,4,5-trifluorobenzyl)oxy)-8,9,9a,10-tetrahydropyrimido[6′,1′:2,3]imidazo[1,5-c][1,3]oxazin-1(6H)-one]
O=c1nc(OCc2cc(F)cc(F)c2)cc2n1C[C@@H]1CCOCN21 [Example E182, (S)-3-((3,5-difluorobenzyl)oxy)-8,9,9a,10-tetrahydropyrimido[6′,1′:2,3]imidazo[1,5-c][1,3] oxazin-1(6H)-one]
O=c1nc(OCc2cccc(F)c2F)cc2n1C[C@@H]1CCOCN21 [Example E183, (S)-3-((2,3-difluorobenzyl)oxy)-8,9,9a,10-tetrahydropyrimido[6′,1′:2,3]imidazo[1,5-c][1,3] oxazin-1(6H)-one]
O=c1nc(OCc2cc(F)cc(F)c2)cc2n1CC1OCCN21 (stereo not shown) [Example E184, 6-((3,5-Difluorobenzyl)oxy)-10,10a-dihydro-2H-oxazolo[3′,2′:3,4]imidazo[1,2-c]pyrimidin-8 (3H)-one]
O=c1nc(OCCc2cccc(F)c2)cc2n1C[C@H]1COCN21 [Example E186, (S)-6-(3-fluorophenethoxy)-10,10a-dihydro-1H-oxazolo[3′,4′:3,4]imidazo[1,2-c]pyrimidin-8(3H)-one]
O=c1nc(OCc2cccc(F)c2F)cc2n1CC1OCCN21 (stereo not shown) [Example E187, 6-((2,3-Difluorobenzyl)oxy)-10,10a-dihydro-2H-oxazolo[3′,2′:3,4]imidazo[1,2-c]pyrimidin-8(3H)-one]
O=c1nc(OCc2cc(F)c(F)c(F)c2)cc2n1CC1OCCN21 (stereo not shown) [Example E188, 6-((3,4,5-Trifluorobenzyl)oxy)-10,10a-dihydro-2H-oxazolo[3′,2′:3,4]imidazo[1,2-c]pyrimidin-8(3H)-one]
N#Cc1ccc(CCOc2cc3n(c(=O)n2)C[C@H]2COCN32)cc1 [Example E191, (S)-4-(2-((8-oxo-3,8,10,10a-tetrahydro-1H-oxazolo[3′,4′:3,4]imidazo[1,2-c]pyrimidin-6-yl)oxy)ethyl)benzonitrile]
O=c1nc(OCc2cc(F)c(OC3(CCF)CC3)c(F)c2)cc2n1C[C@@H]1COCN21 [Example E193, (R)-6-((3,5-difluoro-4-(1-(2-fluoroethyl)cyclopropoxy)benzyl)oxy)-10,10a-dihydro-1H-oxazolo[3′,4′:3,4]imidazo[1,2-c]pyrimidin-8(3H)-one]
O=c1nc(OCc2cc(F)c(OC3(CCF)CC3)c(F)c2)cc2n1C[C@H]1CCOCN21 [Example E195, (R)-3-((3,5-difluoro-4-(1-(2-fluoroethyl)cyclopropoxy)benzyl)oxy)-8,9,9a,10-tetrahydropyrimido[6′,1′:2,3]imidazo[1,5-c][1,3]oxazin-1(6H)-one]
O=c1nc(OCc2cc(F)c(OC3(CCF)CC3)c(F)c2)cc2n1C[C@H]1COCN21 [Example E197, (S)-6-((3,5-difluoro-4-(1-(2-fluoroethyl)cyclopropoxy)benzyl)oxy)-10,10a-dihydro-1H-oxazolo[3′,4′:3,4]imidazo[1,2-c]pyrimidin-8(3H)-one]
Cn1cc(Oc2c(F)cc(COc3cc4n(c(=O)n3)CC3OCCCN43)cc2F)cn1 (stereo not shown) [Example E200, 7-((3,5-Difluoro-4-((1-methyl-1H-pyrazol-4-yl)oxy)benzyl)oxy)-3,4,11,11a tetrahydropyrimido[6′,1′:2,3]imidazo[5,1-b][1,3]oxazin-9(2H)-one]
O=c1nc(OCc2ccc(CN3CCCC(F)(F)C3)c(F)c2)cc2n1C[C@@H]1CCCCN21 [Example E205, (S)-3-((4-((3,3-difluoropiperidin-1-yl)methyl)-3-fluorobenzyl)oxy)-6,7,8,9,9a,10-hexahydro-1H-pyrido[1′,2′:3,4]imidazo[1,2-c]pyrimidin-1-one]
O=c1nc(OCc2cc(F)c(OC3CCC(F)(F)CC3)c(F)c2)cc2n1C[C@@H]1CCCN21 [Example E206, (S)-3-((4-((4,4-difluorocyclohexyl)oxy)-3,5-difluorobenzyl)oxy)-7,8,8a,9-tetrahydropyrrolo[1′,2′:3,4]imidazo[1,2-c]pyrimidin-1(6H)-one]
CCCCN1CC(Oc2c(F)cc(COc3cc4n(c(=O)n3)C[C@@H]3CCCN43)cc2F)C1 [Example E207, (S)-3-((4-((1-butylazetidin-3-yl)oxy)-3,5-difluorobenzyl)oxy)-7,8,8a,9-tetrahydropyrrolo[1′,2′:3,4]imidazo[1,2-c]pyrimidin-1(6H)-one]
O=c1nc(OCc2cccc(F)c2F)cc2n1C[C@@H]1CCCN21 [Example E212, (S)-3-((2,3-difluorobenzyl)oxy)-7,8,8a,9-tetrahydropyrrolo[1′,2′:3,4]imidazo[1,2-c]pyrimidin-1(6H)-one]
O=c1nc(OCc2cccc(F)c2)cc2n1C[C@@H]1CCCN21 [Example E214, (S)-3-((3-fluorobenzyl)oxy)-7,8,8a,9-tetrahydropyrrolo[1,2′:3,4]imidazo[1,2-c]pyrimidin-1(6H)-one]
